From patent publication US8357659B2, “Method of treating pain or itching with APETx2 peptide toxin” (priority 2008, dated 2013)

Key:
[1] = system: thermal hyperalgesia induced by CFA; experiment: Inflammation-induced (CFA) thermal hyperalgesia in rats, hotplate at 50° C.; assay type: in vivo, rat
Experimental: Sensitivity to heat of adult male Wistar rats (Charles River, France) was tested by measuring the time taken by the animal to retract one of its hind paws when placed on a hotplate at 50° C. (Bioseb, France), before and after induction of inflammation by subcutaneous injection of a solution of Freund's complete adjuvant (CFA, Sigma-Aldrich, France). The rats were acclimatised to the experimentation room for at least 30 minutes and each measurement was performed in duplicate. An initial measurement was performed before induction of inflammation. The rats were subsequently anaesthetised (isofluorane) while 150 μl of CFA diluted 1:1 with a saline solution (0.9% NaCl) containing either toxins (PcTx1 or APETx2, 120 nM and 20 μM, respectively) or the vehicle was injected (26G needle mounted on a 1 ml syringe) subcutaneously into the plantar side of one of the hind paws. The time taken by the animal to lift the injected hind paw was subsequently measured at 50° C., 2, 4 and 24 hours after the injection of CFA.
ASIC3 channel-specific iRNA (no. 1121; CTACACGCTATGCCAAGGA, SEQ ID NO: 1) and its control (no. 1121S; GCTCACACTACGCAGAGAT, SEQ ID NO: 2) were designed in the laboratory and were synthesised by MWG Biotech Company (Germany). The ASIC3-specific iRNA was validated by quantification of the messenger RNA levels by quantitative RT-PCR for each ASIC channel and for the TRPV1 channel, following intrathecal injections into the lumbar region of the spinal cord of rats, at a rate of one injection per day for 3 consecutive days, before the animal was sacrificed. The same procedure was followed before induction of inflammation by CFA. Each injection was 10 μl in volume, containing 2 μg of iRNA mixed with the transfection agent i-Fect (Neuromics) at a ratio of 1 to 4.

[2] = target: T1, heteromer ASIC1a+3 (Rattus norvegicus, UniProt O35240+P55926); conditions: relative to ASIC3 / ASIC2b+3; cited from earlier work
T1 sequence (P55926 1-526): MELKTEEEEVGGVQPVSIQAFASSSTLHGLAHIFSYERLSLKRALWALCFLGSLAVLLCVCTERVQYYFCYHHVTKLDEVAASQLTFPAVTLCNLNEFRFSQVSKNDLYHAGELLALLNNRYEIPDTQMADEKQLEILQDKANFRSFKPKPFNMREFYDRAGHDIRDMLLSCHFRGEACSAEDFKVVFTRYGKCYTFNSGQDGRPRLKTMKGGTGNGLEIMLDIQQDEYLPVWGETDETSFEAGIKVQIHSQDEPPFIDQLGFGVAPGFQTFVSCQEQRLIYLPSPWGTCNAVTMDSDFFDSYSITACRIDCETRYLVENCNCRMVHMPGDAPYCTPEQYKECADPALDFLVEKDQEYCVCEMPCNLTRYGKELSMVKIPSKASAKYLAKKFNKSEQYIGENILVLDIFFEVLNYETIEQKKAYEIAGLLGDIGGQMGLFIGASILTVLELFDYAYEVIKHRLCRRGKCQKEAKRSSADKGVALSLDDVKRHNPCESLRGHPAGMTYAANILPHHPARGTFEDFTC
T1 sequence (O35240 1-533): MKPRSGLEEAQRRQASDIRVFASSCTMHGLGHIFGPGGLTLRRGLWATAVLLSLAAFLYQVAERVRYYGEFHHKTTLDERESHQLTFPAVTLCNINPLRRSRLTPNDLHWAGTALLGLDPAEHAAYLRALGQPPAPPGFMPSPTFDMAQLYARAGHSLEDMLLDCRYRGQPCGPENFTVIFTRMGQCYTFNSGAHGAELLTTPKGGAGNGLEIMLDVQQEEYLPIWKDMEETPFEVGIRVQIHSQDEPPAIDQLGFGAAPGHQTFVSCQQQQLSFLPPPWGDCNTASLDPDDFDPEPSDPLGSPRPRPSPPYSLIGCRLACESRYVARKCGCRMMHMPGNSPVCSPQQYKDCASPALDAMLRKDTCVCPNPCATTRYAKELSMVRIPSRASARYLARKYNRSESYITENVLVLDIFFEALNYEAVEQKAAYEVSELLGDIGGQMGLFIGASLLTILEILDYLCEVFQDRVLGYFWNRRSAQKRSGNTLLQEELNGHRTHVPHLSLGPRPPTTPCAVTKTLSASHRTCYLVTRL

peptide of 42 amino acids (SEQ ID NO: 3), three disulphide bonds, from sea anemone Anthopleura elegantissima; blocks ASIC3 [APETx2]
development of thermal hyperalgesia ([1]; toxin concomitantly injected with CFA (APETx2 20 μM, PcTx1 120 nM), four hours after CFA): does not develop
thermal hyperalgesia behaviour versus vehicle control animals ([1]; twenty hours after the injection of CFA, data not represented): do not display any behaviour different
affinity for the heteromer ASIC1a+3 [2]: less affinity
